Results published in ChEMBL document CHEMBL1139605, “Novel ketal ligands for the glucocorticoid receptor: in vitro and in vivo activity” (Bioorg Med Chem Lett, 2005).
Each block holds one compound with its values, some of them ahead of it.

How the values were obtained:
A549 [1] = test: Effective concentration for inhibition of interleukin-6 in human A549 lung carcinoma cell line using 62% radiolabeled Dexamethasone; type: functional, cell-based
Mus musculus [2] = organism: Mus musculus; test: Effective concentration required for inhibition of interleukin-6 in mouse thioglycolate-elicited peritoneal exudate cell line using 69% radiolabeled Dexamethasone; type: functional
Glucocorticoid receptor [3] = target: T1, Glucocorticoid receptor (Homo sapiens, UniProt P04150); test: Inhibition of human glucocorticoid receptor alpha isoform
T1 sequence (P04150 whole entry): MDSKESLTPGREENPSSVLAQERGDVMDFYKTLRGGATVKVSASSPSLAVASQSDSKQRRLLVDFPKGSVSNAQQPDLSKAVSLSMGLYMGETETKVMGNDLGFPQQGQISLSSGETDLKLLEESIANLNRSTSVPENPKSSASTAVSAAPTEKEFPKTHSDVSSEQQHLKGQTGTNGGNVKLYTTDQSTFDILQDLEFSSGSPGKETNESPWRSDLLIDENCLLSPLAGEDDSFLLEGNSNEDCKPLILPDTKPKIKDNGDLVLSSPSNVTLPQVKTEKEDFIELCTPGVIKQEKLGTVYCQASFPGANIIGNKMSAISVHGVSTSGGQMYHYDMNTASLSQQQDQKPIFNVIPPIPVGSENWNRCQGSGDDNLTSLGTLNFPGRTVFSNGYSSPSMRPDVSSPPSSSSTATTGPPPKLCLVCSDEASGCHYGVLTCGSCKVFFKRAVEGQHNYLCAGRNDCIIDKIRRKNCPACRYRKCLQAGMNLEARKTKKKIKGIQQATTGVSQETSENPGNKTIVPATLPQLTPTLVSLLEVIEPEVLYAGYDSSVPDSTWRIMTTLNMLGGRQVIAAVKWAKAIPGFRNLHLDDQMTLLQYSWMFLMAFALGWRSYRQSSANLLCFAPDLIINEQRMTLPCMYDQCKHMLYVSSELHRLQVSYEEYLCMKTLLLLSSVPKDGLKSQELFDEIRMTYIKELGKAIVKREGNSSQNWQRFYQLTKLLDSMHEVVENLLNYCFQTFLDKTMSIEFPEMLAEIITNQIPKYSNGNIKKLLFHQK

A549 [4] = test: Effective concentration for inhibition of interleukin-6 in human A549 lung carcinoma cell line using 35% radiolabeled Dexamethasone; type: functional, cell-based
A549 [5] = test: Effective concentration for inhibition of interleukin-6 in human A549 lung carcinoma cell line using […]% radiolabeled Dexamethasone; type: functional, cell-based
Mus musculus [6] = organism: Mus musculus; test: Effective concentration required for inhibition of interleukin-6 in mouse thioglycolate-elicited peritoneal exudate cell line using 52% radiolabeled Dexamethasone; type: functional
A549 [7] = test: Effective concentration for inhibition of interleukin-6 in human A549 lung carcinoma cell line using 44% radiolabeled Dexamethasone; type: functional, cell-based
Mus musculus [8] = organism: Mus musculus; test: Effective concentration required for interleukin-6 transrepression in peritoneal exudate cells of C57B1/6 mouse using 56% Dexamethasone; type: functional, cell-based
[9] = Clearance data in mouse at 2 mg/kg i.v. administration; type: ADME, organism-based; parameters: dose 2 mg/kg, route intravenous; conditions: in vivo, iv
Estrogen receptor beta = Estrogen receptor beta (Homo sapiens, UniProt Q92731); test: Binding affinity for human estrogen receptor beta
Estrogen receptor beta, sequence (Q92731 whole entry): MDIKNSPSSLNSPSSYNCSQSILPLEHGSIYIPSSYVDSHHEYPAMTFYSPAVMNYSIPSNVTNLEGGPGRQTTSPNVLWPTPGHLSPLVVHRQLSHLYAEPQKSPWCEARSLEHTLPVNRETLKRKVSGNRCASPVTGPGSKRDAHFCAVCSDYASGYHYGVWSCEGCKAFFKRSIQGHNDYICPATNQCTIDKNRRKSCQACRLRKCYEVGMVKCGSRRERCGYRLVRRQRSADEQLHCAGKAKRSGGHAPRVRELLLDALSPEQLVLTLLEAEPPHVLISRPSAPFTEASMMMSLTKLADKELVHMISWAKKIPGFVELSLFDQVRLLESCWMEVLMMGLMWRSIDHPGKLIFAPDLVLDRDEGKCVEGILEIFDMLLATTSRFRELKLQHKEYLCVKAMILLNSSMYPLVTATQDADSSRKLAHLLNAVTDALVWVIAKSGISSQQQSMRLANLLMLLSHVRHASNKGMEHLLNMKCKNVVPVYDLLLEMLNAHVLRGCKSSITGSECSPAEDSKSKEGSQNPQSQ

Mus musculus [10] = test: Inhibition of LPS induced TNF-alpha secretion in mouse at an oral dose of 30 mg/kg relative to that produced by Dexamethasone at a dose of 0.3 mg/kg; type: functional
[11] = Half life time in mouse at 2 mg/kg i.v. administration; type: ADME, organism-based; parameters: dose 2 mg/kg, route intravenous; conditions: in vivo, iv
Glucocorticoid receptor [12] = target: T1, Glucocorticoid receptor; test: Binding affinity for human glucocorticoid receptor
[13] = Volume of distribution in mouse at 2 mg/kg i.v. administration; type: ADME, organism-based; parameters: dose 2 mg/kg, route intravenous; conditions: in vivo, iv, read-out: Volume of distribution
Mus musculus [14] = organism: Mus musculus; test: Effective concentration required for inhibition of interleukin-6 in mouse thioglycolate-elicited peritoneal exudate cell line using 56% radiolabeled Dexamethasone; type: functional
[15] = target: T2, Mineralocorticoid receptor (Rattus norvegicus, UniProt P22199); test: Binding affinity for rat mineralocorticoid receptor
T2 sequence (P22199 whole entry): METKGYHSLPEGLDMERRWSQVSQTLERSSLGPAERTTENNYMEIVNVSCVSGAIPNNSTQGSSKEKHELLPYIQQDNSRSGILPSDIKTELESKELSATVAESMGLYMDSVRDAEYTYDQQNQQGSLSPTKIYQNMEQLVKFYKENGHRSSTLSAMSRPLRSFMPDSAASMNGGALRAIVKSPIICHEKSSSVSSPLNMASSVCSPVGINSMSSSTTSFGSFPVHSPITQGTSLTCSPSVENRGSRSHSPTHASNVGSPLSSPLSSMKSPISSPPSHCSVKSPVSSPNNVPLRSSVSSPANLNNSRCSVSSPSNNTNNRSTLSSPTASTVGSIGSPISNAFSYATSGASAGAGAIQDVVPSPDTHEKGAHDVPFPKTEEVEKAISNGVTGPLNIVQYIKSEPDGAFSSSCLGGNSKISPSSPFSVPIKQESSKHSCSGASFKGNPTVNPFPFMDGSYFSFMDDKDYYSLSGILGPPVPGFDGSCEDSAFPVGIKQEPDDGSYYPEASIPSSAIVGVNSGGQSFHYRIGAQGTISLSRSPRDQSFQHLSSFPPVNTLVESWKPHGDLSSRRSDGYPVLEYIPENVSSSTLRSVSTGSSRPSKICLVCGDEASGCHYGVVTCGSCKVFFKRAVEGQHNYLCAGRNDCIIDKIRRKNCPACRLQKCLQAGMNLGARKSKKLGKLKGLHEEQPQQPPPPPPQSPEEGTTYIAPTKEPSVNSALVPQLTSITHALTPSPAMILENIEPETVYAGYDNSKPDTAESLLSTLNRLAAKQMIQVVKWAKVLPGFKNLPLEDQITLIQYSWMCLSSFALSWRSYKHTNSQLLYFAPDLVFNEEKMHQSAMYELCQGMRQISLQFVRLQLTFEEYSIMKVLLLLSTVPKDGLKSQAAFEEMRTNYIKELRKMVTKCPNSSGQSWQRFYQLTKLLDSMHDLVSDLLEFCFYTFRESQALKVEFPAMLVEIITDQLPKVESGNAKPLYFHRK

A549 [16] = test: Effective concentration for inhibition of interleukin-6 in human A549 lung carcinoma cell line using 58% radiolabeled Dexamethasone; type: functional, cell-based
Estrogen receptor = target: T3, Estrogen receptor (Homo sapiens, UniProt P03372); test: Binding affinity for human estrogen receptor alpha
T3 sequence (P03372 whole entry): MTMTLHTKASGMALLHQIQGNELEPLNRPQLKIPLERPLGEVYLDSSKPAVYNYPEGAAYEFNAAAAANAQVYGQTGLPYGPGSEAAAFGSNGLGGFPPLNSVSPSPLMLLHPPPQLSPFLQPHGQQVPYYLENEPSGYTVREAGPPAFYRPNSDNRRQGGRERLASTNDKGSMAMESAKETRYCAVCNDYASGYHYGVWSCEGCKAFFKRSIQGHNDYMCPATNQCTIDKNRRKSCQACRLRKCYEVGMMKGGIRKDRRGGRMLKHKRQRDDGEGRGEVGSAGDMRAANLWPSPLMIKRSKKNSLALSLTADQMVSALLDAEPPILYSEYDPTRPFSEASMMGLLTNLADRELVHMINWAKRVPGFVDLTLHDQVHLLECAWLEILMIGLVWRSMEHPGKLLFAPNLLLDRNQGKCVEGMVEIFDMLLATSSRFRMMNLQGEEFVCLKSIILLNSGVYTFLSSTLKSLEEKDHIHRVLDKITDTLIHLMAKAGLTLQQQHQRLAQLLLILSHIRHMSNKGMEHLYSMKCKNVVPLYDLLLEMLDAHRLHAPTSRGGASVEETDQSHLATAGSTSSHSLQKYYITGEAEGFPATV

Progesterone receptor = target: T4, Progesterone receptor (Homo sapiens, UniProt P06401); test: Binding affinity for human progesterone receptor
T4 sequence (P06401 whole entry): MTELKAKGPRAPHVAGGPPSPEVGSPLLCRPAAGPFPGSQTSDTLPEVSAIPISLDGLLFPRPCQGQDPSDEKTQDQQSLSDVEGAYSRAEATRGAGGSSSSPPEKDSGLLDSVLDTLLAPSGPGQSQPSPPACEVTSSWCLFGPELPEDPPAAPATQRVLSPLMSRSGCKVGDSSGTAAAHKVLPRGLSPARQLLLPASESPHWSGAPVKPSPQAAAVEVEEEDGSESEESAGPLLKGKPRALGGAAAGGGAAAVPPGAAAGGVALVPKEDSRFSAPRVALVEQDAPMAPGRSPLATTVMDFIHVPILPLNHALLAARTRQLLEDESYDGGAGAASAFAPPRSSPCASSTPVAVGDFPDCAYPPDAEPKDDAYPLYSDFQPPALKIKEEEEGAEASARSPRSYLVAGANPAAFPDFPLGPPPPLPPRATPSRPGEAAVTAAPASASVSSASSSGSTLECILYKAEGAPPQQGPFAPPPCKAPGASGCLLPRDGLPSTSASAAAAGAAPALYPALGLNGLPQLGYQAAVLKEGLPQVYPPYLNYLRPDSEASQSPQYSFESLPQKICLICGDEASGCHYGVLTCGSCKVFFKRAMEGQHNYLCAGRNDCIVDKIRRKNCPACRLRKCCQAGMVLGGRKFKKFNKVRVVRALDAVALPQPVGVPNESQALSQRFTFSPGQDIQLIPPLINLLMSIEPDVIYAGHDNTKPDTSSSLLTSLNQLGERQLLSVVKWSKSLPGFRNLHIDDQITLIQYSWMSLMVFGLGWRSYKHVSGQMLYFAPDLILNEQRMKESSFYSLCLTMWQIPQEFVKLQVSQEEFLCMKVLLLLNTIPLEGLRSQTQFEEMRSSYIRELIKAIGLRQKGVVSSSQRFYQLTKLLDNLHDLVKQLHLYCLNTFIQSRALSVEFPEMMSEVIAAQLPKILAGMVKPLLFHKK

[17] = Bioavailability in mouse (dose 10 mg/kg p.o.); type: ADME, organism-based; conditions: in vivo, po
A549 [18] = test: Effective concentration for inhibition of interleukin-6 in human A549 lung carcinoma cell line using 59% radiolabeled Dexamethasone; type: functional, cell-based
Mus musculus [19] = organism: Mus musculus; test: Effective concentration required for inhibition of interleukin-6 in mouse thioglycolate-elicited peritoneal exudate cell line using 77% radiolabeled Dexamethasone; type: functional

EC50 (A549 [1]): 0.0083 µM | EC50 (Mus musculus [2]): 0.01 µM | IC50 (Glucocorticoid receptor [3]): 0.026 µM
SMILES: COC[C@H]1OC2(CCC3=Cc4c(cnn4-c4ccc(F)cc4)C[C@@]32C)O[C@@H]1COC

EC50 (A549 [4]): 0.00053 µM | IC50 (Glucocorticoid receptor [3]): 0.021 µM
SMILES: C[C@H]1CCO[C@]2(CCC3=Cc4c(cnn4-c4ccc(F)cc4)C[C@@]32C)O1

EC50 (A549 [5]): 0.009 µM | EC50 (Mus musculus [6]): 0.168 µM | IC50 (Glucocorticoid receptor [3]): 0.0058 µM
SMILES: C=C[C@@H]1CO[C@]2(CCC3=Cc4c(cnn4-c4ccc(F)cc4)C[C@@]32C)O1

EC50 (A549 [7]): 0.012 µM | IC50 (Glucocorticoid receptor [3]): 0.0022 µM
SMILES: C[C@@H]1CC(C)(C)O[C@]2(CCC3=Cc4c(cnn4-c4ccc(F)cc4)C[C@@]32C)O1

EC50 (Mus musculus [8]): 0.061 µM | clearance [9]: 114 mL/min/kg | IC50 (Estrogen receptor beta): > 10 µM | half-life [11]: 2.3 h | IC50 (Glucocorticoid receptor [12]): 0.008 µM | Vd [13]: 15.3 L/kg | EC50 (Mus musculus [14]): 0.061 µM | IC50 [15]: > 10 µM | EC50 (A549 [16]): 0.0026 µM | IC50 (Estrogen receptor): > 10 µM | IC50 (Glucocorticoid receptor [3]): 0.008 µM | IC50 (Progesterone receptor): > 1 µM | bioavailability [17]: 14.3%
SMILES: C=C[C@H]1OC2(CCC3=Cc4c(cnn4-c4ccc(F)cc4)C[C@@]32C)O[C@@H]1C=C
Inhibition (Mus musculus [10]): 96.8%

EC50 (A549 [18]): 0.025 µM | IC50 (Glucocorticoid receptor [3]): 0.0021 µM | EC50 (Mus musculus [19]): 0.018 µM
SMILES: C[C@@H]1CC(C)(C)O[C@@]2(CCC3=Cc4c(cnn4-c4ccc(F)cc4)C[C@@]32C)O1
